Laboratory results as given in the NIST ThermoML archive (doi:10.1021/acs.jced.5b00594).
± gives the expanded uncertainty stated by the source.

Assay: wn = mass fraction of the nth substance listed
Conditions: 313.15 K, 100 kPa, Liquid, Pycnometric method

| mass density (w1 = 0.4722) [kg/m3] | mass density (w2 = 0.6151) [kg/m3] | SMILES |
| --- | --- | --- |
| 1391 ± 4 | – | O=S(=O)([O-])O.[K+] [hydrogen potassium sulfate] + O |
| – | 1832 ± 6 | O=S(=O)([O-])O.[K+] [hydrogen potassium sulfate] + O=S(=O)(O)O |
